Each structure is given as a SMILES string. ≈ marks a conversion by molar mass, not a printed value.

Holding throughout (type): functional
Experiment [1] is filed under the species Mus musculus. The experiment can be described thus: Minimum inhibitory concentration was evaluated in mice against antimicrobial activity in […] (PISP 49619); 1-2.
For experiment [2], the species on record is Mus musculus. The experiment can be described thus: Minimum inhibitory concentration was evaluated in mice against antimicrobial activity in methicillin-resistant Staphylococcus aureus(MRSA 27660); 0.25-1.
The species entered for experiment [3] is Mus musculus. The experiment can be described thus: Minimum inhibitory concentration was evaluated in mice against antimicrobial activity in […] Enterococcus faecalis (VSEF 29212); 0.5-2.

Turning to `Cn1cc(NC(=O)c2cc(NC(=O)c3cc(NC(=O)c4cc5ccccc5cn4)cn3C)c[nH]2)cc1C(=O)NCCN1CCOCC1`, the minimum inhibitory concentration (MIC) (commonly the least concentration at which growth counts as inhibited) in the experiment filed under Mus musculus [1] amounted to 2 µg/mL (≈ 3.14 µM); in the experiment listed under Mus musculus [2], 1 µg/mL (≈ 1.57 µM); in the experiment filed under Mus musculus [3], 2 µg/mL (≈ 3.14 µM).

The record behind these values is ChEMBL document CHEMBL1137975, “DNA binding ligands with in vivo efficacy in murine models of bacterial infection: optimization of internal aromatic amino acids” (2004).
